Legend:
[1] = system: natural killer (NK) cells; assay: Flow cytometry of NK cells (S1L-M); format: in vivo, mouse; design: key to Frequencies of NK in Spleen / Frequencies of NK in LN: % of cells; details: for Frequencies of NK in LN: Supplemental Figure 1M left; for number of NK in LN: Supplemental Figure 1M right; for NK (NK1.1) gate number: representative flow plot; for Frequencies of NK in Spleen: Supplemental Figure 1L left; for number of NK in Spleen: Supplemental Figure 1L right
Method: C57BL/6 mice were subcutaneously injected with 5 × 10^5 B16-OVA melanoma cells. Five days after tumor implantation, mice received an intravenous infusion of 2 × 10^6 in vitro–differentiated Th9 cells (cultured for 5 days), which were derived from OT-II CD45.1 donor mice, accompanied by 4 × 10^5 OVA peptide–pulsed DCs via the tail vein. To enhance T cell engraftment and facilitate lymphodepletion, a single intraperitoneal injection of cyclophosphamide (200 mg/kg, Sigma, catalog C0768) was administered 1 day prior to T cell transfer. Mice were euthanized at designated time points for the collection and analysis of spleens, tumor-draining lymph nodes, and tumor tissues.
Details regarding staining panels (human and mouse), reagents (including clones and catalog numbers), acquisition settings, compensation/controls, and analysis procedures are provided in Supplemental Methods. […]
Figure S1. EpA enhances immune responses. […]
(L and M) Representative plots, frequencies, and total numbers of natural killer (NK) cells in spleens (L) and LNs (M). Data in (A–M) are shown as mean ± SEM from n = 4 mice per group. Statistical analysis was performed using two-way ANOVA with Tukey’s post hoc test (A), one-way ANOVA with Tukey’s post hoc test (B) or two-tailed unpaired Student’s t-test (D and G–M). ns, not significant. *p < 0.05, **p < 0.01, ****p < 0.0001.
(also on this page, place not known: Mouse weight (g) CtrlEpA CtrlEpA CtrlEpA0 I CD45.1+ T cells (%) CtrlEpA CD4+ T cells (%) CtrlEpA CtrlEpA CtrlEpA FSC CD8 CD8 FSC FSC FSC BNumber of CD45.1+ T cells (×103 per mgĎ Number of CD4+ T cells (×104 per mgĎ DC (%)NK cells (%) NK cells (%) DC (%) Number of DC (×103 per mg) Number of NK cells (×105) Number of NK cells (×103 per mg) Number of DC (×105) FSC FSC FSC CD8 CtrlEpA CtrlEpA CtrlEpA CD8+ T cells (%) Number of CD8+ T cells (×104 per mgĎ nsns ns nsns ns 40 IL-6 (pg/ml))

B16-OVA melanoma [2] = assay: Adoptive transfer of OT-II Th9 cells, B16-OVA tumor growth in C57BL/6 mice (Figure 2A, 2H); format: in vivo; details: EpA-Th9 cells vs conventional Th9 cells; result in words
Text: (§1) (A) Schematic of the therapeutic model. C57BL/6 mice were subcutaneously inoculated with B16-OVA melanoma cells (5 × 10^5) and preconditioned with cyclophosphamide (CTX) on day 4. […] (B–G) Flow-cytometric analysis of transferred CD45.1^+ OT-II Th9 cells (B and C) and endogenous CD4^+ (D and E) and CD8^+ T cells (F and G) in spleens and tumors, showing frequencies and absolute numbers (n = 4 mice per group). (H) Tumor growth curves in B16-OVA–bearing C57BL/6 or β2-microglobulin–deficient (β2m-KO) mice following transfer of control or EpA-treated OT-II Th9 cells (n = 4 mice per group). (I) C57BL/6 mice bearing B16-OVA tumors were treated with control or EpA-induced OT-II Th9 cells (2 × 10^6, i.v., day 5), followed by anti–PD-1 antibody (200 μg, i.p.) on day 7, and (100 μg, i.p.) on day 10 and 12. Tumor growth is shown with individual trajectories (n = 6 mice per group). Statistical analysis was performed using 2-tailed unpaired Student’s t test ([…], B–G) or 1-way ANOVA with Tukey’s post hoc test (H and I). All data are presented as the mean ± SEM. *P < 0.05, **P < 0.01, ***P < 0.001. Schematic in A created using BioRender (https://Biorender.com).
C57BL/6 mice were subcutaneously injected with 5 × 10^5 B16-OVA melanoma cells. […]

B16-OVA melanoma [3] = assay: Adoptive transfer of OT-II Th9 cells with anti-PD-1, B16-OVA tumor growth (Figure 2I); format: in vivo, C57BL/6 mice; details: EpA-Th9 cells with anti-PD-1; result in words
Text: as §1
Finally, we examined whether the CD8^+ T cell–supporting capacity of EpA-Th9 cells could synergize with immune checkpoint blockade (ICB) therapy. […]

**Q.** Which results are given for anteiso-C15 Leu7 surfactin [EpA]?
**A.** Frequencies of NK in LN ([1]; LN, replicate 1): 1.5; Frequencies of NK in LN ([1]; LN, replicate 2): 1.56; Frequencies of NK in LN ([1]; LN, replicate 3): 7.14; Frequencies of NK in LN ([1]; LN, replicate 4): 7.79; number of NK in LN ([1]; LN, replicate 1): 2211.77; number of NK in LN ([1]; LN, replicate 2): 2015.49; number of NK in LN ([1]; LN, replicate 3): 5620.7; number of NK in LN ([1]; LN, replicate 4): 5844.48; NK (NK1.1) gate number ([1]; LN, Figure S1M): 1.56; Frequencies of NK in Spleen ([1]; Spleen, replicate 1): 14.2; Frequencies of NK in Spleen ([1]; Spleen, replicate 2): 14.6; Frequencies of NK in Spleen ([1]; Spleen, replicate 3): 14.4; Frequencies of NK in Spleen ([1]; Spleen, replicate 4): 13.7; number of NK in Spleen ([1]; Spleen, replicate 1): 1287047; number of NK in Spleen ([1]; Spleen, replicate 2): 1289552; number of NK in Spleen ([1]; Spleen, replicate 3): 1303518; number of NK in Spleen ([1]; Spleen, replicate 4): 1053933; NK (NK1.1) gate number ([1]; Spleen, Figure S1L): 14.2; NK cells ([1]; result in words): increased only in the spleen; tumor control (B16-OVA melanoma [2]): significantly improved tumor control; response to PD-1 blockade (B16-OVA melanoma [3]): significantly enhanced the therapeutic response to PD-1 blockade

Reference: publication PMC12867150, “A fungi-derived cyclic peptide enhances Th9-mediated antitumor immunity by targeting ZAP70 and SREBP1” (The Journal of Clinical Investigation, 2025)
